Among the data in US20240217947A1, “Morpholinylquinazoline Compound, Pharmaceutical compositions thereof and Use Thereof” (SHANGHAI YINGLI PHARMACEUTICAL CO., LTD, priority 2022, published 2024) are IC50 values, retold here.

Holding throughout (format): biochemical
One test addresses PI3Kδ (Homo sapiens, UniProt O00329). Nature of the test: PI3Kδ enzyme activity inhibition IC50 evaluation assay (ADP-Glo Kinase Assay). The conditions noted are these: ATP 25 μM, PIP2 50 μg/mL, 1 hour room temperature, read-out: PI3K-δ IC50. The method, then: (§1) Effec Example 1 IC50 evaluation assay for PI3Kα, PI3Kδ, PI3Kβ and PI3Kγ enzyme activity inhibition
(§2) The experiment was performed using the ADP-Glo Kinase Assay kit, following the instructions. The following buffer solutions were prepared: 50 mM HEPES, pH 7.5, 3 mM MgCl2, 1 mM EGTA, 100 mM NaCl, 0.03% CHAPS, 2 mM DTT. The test compound samples were dissolved in DMSO and added to the screening system at a certain starting concentration such as 10 μM, 3-fold dilution, while setting up both DMSO control and no kinase control. The optimal concentrations of PI3Kα, PI3Kδ, PI3Kβ and PI3Kγ enzymes, substrate (PIP2) and ATP were prepared in buffer. The enzyme reaction system included: buffer, ATP 25 μM, kinase substrate (PIP2, 50 μg/mL), kinases [PI3Kα (0.15 μg/mL), PI3Kδ (1.2 μg/mL), PI3Kβ (0.3 μg/mL) and PI3Kγ (2.5 μg/mL)], etc. The reaction system was reacted at room temperature for 1 hour. The reaction was terminated by adding a termination reagent (ADP-Glo reagent, 5 μL), and the ADP content in the system was detected using a detection reagent (Kinase Detection Reagent, 10 μL). Signal data were collected using the Envision instrument. Calculate the percentage of (%) inhibition according to the following formula: % inhibition=(DMSO control signal value−sample signal value)/(DMSO control signal value−no-kinase control signal value). The IC50 value was obtained by fitting the curve using the formula Y=Bottom+(Top-Bottom)/(1+(IC50/X)^HillSlope).

Another test has as its target HDAC2 (Homo sapiens, UniProt Q92769). As to the kind of experiment: HDAC2 enzyme activity inhibition IC50 evaluation experiment. The conditions noted are these: HDAC2 4 nM, acetylated peptide 10 μM, trypsin, fluorescence. As to the method:
(§3) Effect Example 2 HDAC1, HDAC2, HDAC3, HDAC6 enzyme activity inhibition IC50 evaluation experiment
(§4) Buffer solution (50 mM Tris 7.5, 0.01% Tween-20, 50 mM NaCl) was prepared according to the kit instructions, and the enzyme solution and substrate solution (acetylated peptide with the addition of trypsin) were prepared using the buffer solution. The test compound samples were dissolved with DMSO and added to the screening system at a certain starting concentration such as 10 μM, 3-fold dilution, while setting up a DMSO control and no-enzyme control. The enzyme reaction system includes: buffer, enzyme [final concentration: HDAC1=10 nM, HDAC2=4 nM, HDAC3=7 nM, HDAC6=5 nM], substrate (acetylated peptide) [final concentration: Peptide(HDAC1)=8 μM, Peptide(HDAC2)=10 μM, Peptide(HDAC3)=5 μM, Peptide(HDAC6)=11 μM], trypsin [final concentration: Trypsin(HDAC1,2,3)=0.05 μM, Trypsin(HDAC6)=0.1 μM], etc. The enzymes and compounds were reacted at room temperature for 15 min. After adding the substrate and Trypsin, centrifugation was performed for 1 min, and the fluorescence signal data (excitation wavelength 355 nM/emission wavelength 460 nm) was read continuously for 60 min using Envision, and the linear reaction segment was selected to obtain the slope and thus calculate the inhibition rate at that concentration. The IC50 value was obtained by fitting the curve using the formula Y=Bottom+(Top-Bottom)/(1+(IC50/X)^HillSlope).

The target in a further test is HDAC1 (Homo sapiens, UniProt Q13547). As to the kind of experiment: HDAC1 enzyme activity inhibition IC50 evaluation experiment. The conditions noted are these: HDAC1 10 nM, acetylated peptide 8 μM, trypsin, fluorescence. As to the method:
as §3, §4

In a further test the target is T1, HDAC10 (Homo sapiens, UniProt Q969S8).
T1 sequence (Q969S8 1-669): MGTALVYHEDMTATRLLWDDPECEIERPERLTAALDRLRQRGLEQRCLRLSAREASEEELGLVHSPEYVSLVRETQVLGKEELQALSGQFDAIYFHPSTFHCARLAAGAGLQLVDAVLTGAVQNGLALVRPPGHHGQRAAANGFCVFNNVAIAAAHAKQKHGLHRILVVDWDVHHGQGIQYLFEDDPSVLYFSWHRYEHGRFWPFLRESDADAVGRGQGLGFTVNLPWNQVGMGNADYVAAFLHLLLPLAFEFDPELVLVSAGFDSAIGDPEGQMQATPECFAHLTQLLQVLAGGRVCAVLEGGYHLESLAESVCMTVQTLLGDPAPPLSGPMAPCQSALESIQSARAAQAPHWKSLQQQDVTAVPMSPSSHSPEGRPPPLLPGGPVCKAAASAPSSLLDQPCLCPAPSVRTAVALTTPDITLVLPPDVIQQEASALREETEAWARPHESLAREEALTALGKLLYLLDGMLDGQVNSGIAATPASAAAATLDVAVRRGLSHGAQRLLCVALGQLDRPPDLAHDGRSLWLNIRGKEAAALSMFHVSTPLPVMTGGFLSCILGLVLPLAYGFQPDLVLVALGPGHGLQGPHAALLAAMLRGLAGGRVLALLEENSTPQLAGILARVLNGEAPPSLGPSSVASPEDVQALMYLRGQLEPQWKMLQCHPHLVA
As to the kind of experiment: HDAC10 enzyme activity inhibition IC50 evaluation experiment. The conditions noted are these: HDAC10 10 nM, acetylated peptide 4 μM, 240 min, fluorescence. As to the method:
Effect Example 3 HDAC8, HDAC10 enzyme activity inhibition IC50 evaluation experiment
Prepare buffer solution (HDAC8: 50 mM Tris 8.0, 2.7 mM KCl, 137 mM NaCl, 1 mM MgCl2, 1 mg/mL BSA; HDAC10: 50 mM Tris 7.5, 0.01% Tween-20, 50 mM NaCl, 0.05 mg/mL BSA) according to the kit instructions, prepared Enzyme solution, substrate solution (acetylated peptide) by using buffer. The test compound samples were dissolved in DMSO and was added to the screening system at a certain starting concentration such as 10 μM, 3-fold dilution, while setting up the DMSO control and the no-enzyme control. The enzyme reaction system includes: buffer, enzyme [final concentration: HDAC8=10 nM, HDAC10=10 nM], substrate (acetylated peptide) [final concentration: Peptide(HDAC8)=20 μM, Peptide(HDAC10)=4 μM], etc. The enzymes and compounds were reacted at room temperature for 15 minutes. After adding the substrate peptide the reaction system was reacted at room temperature for 240 min. Trypsin solution was added [final concentration: Trypsin=50p M] and incubation continued for 120 min. The fluorescence signal data (excitation wavelength 355 nM/emission wavelength 460 nm) was read with Envision instrument. Calculate the inhibition rate at this concentration based on the relative fluorescence units (RFU). The IC50 value was obtained by fitting a curve using the formula Y=Bottom+(Top-Bottom)/(1+(IC50/X)^HillSlope).

For another test, the target named is PI3Kα (Homo sapiens, UniProt P42336). Nature of the test: PI3Kα enzyme activity inhibition IC50 evaluation assay (ADP-Glo Kinase Assay). The conditions noted are these: ATP 25 μM, PIP2 50 μg/mL, 1 hour room temperature, read-out: PI3K-α IC50. The method, then: as §1, §2
Chain of PI3Kα (P42336 whole entry, species assumed): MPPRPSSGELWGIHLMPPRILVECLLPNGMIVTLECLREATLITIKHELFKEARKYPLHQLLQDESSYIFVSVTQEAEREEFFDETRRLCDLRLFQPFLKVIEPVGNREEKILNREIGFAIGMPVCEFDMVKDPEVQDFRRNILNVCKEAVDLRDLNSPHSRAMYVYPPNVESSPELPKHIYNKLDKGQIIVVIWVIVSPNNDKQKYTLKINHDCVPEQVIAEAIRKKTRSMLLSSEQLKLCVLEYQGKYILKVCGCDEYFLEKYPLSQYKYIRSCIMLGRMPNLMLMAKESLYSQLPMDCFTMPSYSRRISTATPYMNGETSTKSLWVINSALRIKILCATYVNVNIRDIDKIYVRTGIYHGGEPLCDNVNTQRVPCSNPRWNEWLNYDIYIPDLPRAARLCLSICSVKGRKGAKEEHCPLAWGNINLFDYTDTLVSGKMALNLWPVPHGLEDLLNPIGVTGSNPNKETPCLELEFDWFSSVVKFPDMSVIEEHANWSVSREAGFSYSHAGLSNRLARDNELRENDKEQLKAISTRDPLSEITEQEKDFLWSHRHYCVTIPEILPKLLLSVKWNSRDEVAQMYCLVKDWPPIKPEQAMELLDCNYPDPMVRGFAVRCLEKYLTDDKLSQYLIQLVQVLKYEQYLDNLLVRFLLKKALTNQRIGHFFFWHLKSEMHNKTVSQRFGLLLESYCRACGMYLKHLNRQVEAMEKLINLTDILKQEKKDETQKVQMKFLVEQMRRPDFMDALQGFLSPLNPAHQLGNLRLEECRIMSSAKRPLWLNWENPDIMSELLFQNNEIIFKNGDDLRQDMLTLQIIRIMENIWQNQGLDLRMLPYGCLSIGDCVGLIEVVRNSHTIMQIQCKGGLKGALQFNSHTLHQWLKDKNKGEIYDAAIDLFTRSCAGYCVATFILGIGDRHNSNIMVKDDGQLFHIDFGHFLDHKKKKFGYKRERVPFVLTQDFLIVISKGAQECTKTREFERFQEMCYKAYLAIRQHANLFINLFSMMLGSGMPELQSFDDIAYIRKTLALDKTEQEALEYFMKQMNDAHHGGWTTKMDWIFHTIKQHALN
Chain of PI3Kα (P27986 whole entry partner, species assumed): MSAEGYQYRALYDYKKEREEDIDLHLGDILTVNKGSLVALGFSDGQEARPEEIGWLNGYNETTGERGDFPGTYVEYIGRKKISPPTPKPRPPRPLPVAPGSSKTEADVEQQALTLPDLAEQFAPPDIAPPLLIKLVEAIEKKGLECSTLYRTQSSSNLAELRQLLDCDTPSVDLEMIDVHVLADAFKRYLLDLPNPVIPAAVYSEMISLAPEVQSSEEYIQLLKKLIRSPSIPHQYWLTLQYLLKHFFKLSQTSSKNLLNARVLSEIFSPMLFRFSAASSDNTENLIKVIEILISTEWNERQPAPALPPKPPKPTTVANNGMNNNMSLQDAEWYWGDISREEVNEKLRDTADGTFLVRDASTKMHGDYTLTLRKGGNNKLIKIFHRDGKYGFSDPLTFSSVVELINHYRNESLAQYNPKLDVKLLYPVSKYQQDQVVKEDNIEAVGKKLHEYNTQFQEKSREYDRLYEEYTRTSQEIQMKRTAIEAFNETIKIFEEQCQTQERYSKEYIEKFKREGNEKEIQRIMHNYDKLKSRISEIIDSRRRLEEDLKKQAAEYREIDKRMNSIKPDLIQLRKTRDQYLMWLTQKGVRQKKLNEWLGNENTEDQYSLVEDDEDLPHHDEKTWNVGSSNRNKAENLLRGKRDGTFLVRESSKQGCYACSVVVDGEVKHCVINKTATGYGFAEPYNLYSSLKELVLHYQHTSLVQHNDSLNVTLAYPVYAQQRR

Chain of PI3Kδ (O00329 whole entry, species assumed): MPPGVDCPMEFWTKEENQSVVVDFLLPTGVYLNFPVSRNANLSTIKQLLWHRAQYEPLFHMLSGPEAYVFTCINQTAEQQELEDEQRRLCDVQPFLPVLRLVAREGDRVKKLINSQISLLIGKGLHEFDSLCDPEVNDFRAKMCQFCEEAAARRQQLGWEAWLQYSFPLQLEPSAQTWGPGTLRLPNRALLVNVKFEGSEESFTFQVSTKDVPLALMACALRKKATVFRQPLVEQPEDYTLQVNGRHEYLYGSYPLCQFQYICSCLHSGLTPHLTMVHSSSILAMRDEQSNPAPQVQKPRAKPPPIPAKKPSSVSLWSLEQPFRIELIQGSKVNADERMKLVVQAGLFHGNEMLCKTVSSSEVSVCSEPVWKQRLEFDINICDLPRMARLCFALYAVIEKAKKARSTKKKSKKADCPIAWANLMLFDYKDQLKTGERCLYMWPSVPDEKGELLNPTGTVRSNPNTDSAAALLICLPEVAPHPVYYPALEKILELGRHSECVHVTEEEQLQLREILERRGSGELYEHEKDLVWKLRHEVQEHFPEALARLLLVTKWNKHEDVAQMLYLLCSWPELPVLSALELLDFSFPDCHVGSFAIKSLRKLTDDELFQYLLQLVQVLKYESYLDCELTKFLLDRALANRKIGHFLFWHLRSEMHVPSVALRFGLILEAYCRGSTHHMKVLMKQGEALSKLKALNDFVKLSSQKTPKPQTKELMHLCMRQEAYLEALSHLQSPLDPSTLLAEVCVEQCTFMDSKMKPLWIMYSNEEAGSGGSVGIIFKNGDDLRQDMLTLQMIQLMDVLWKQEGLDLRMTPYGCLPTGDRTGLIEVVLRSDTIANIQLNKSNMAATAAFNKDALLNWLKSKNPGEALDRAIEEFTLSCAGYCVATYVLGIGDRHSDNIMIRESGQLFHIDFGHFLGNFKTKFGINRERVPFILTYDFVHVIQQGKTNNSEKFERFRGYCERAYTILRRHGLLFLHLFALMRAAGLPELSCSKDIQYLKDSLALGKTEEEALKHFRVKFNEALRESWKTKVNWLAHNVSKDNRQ
Chain of PI3Kδ (P27986 whole entry partner, species assumed): as the sequence (P27986 whole entry partner, species assumed) above
Chain of HDAC1 (Q13547 whole entry, species assumed): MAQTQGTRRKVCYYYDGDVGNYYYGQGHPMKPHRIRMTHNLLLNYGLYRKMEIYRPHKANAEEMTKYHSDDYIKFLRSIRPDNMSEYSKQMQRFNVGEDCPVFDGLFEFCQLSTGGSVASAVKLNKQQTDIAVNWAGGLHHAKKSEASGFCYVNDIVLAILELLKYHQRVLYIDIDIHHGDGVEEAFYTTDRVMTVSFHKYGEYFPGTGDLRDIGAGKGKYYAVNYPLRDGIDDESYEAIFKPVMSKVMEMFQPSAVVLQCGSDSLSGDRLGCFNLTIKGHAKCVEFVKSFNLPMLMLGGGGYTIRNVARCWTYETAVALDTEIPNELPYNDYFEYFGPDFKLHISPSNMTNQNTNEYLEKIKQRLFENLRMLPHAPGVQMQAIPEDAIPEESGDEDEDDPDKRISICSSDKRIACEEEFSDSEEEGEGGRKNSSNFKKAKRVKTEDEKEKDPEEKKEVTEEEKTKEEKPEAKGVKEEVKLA
Chain of HDAC2 (Q92769 whole entry, species assumed): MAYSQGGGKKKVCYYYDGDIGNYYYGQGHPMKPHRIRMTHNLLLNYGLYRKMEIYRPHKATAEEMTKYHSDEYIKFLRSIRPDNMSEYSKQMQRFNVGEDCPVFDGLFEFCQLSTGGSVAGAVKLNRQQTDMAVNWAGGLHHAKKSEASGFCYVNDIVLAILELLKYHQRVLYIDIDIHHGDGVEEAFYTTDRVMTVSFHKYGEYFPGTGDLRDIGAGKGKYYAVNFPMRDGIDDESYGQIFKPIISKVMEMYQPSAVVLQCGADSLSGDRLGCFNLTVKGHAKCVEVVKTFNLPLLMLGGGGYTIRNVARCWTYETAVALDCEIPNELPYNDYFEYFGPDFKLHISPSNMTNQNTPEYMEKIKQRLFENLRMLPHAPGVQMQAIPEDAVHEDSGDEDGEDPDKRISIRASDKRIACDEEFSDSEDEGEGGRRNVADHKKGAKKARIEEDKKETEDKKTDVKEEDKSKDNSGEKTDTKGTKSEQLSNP

Take `COc1ncc(-c2nc(N3CCOCC3)nc3c(OC4CCN(c5ccc(C(=O)NO)cn5)CC4)cc(F)cc23)cc1NS(C)(=O)=O` [Compound 40]: the results for the half-inhibitory concentration (IC50) on PI3Kδ, on HDAC2 and on HDAC1 were not above 10 nM, 100 to 1000 nM and 10 to 100 nM, respectively.
For the compound `COc1ncc(-c2nc(N3CCOCC3)nc3c(OCCCCCCC(=O)NO)cc(F)cc23)cc1NS(C)(=O)=O` [Compound 9], the IC50 at PI3Kδ is 10 to 100 nM; on HDAC10 it was 100 to 1000 nM; at PI3Kα it was 1000 to 10000 nM; against HDAC2, not above 10 nM; on HDAC1, not above 10 nM.
As to `COc1ncc(-c2nc(N3CCOCC3)nc3c(CN4CCN(c5ncc(C(=O)NO)cn5)CC4)cc(F)cc23)cc1NS(C)(=O)=O` [Compound 7], the IC50 on PI3Kδ was not above 10 nM; against HDAC10, 100 to 1000 nM; at PI3Kα, 100 to 1000 nM; at HDAC2, 10 to 100 nM; against HDAC1, 10 to 100 nM.
In the case of `COc1ncc(-c2nc(N3CCOCC3)nc3c(OC4CCN(c5ncc(C(=O)NO)cn5)CC4)cc(F)cc23)cc1NS(C)(=O)=O` [Compound 39], the concentration for half-maximal inhibition (IC50) at PI3Kδ was not above 10 nM; at HDAC10, 10 to 100 nM; against HDAC2, 10 to 100 nM; against HDAC1, not above 10 nM.
As for `COc1ncc(-c2nc(N3CCOCC3)nc3c(OC4CCN(c5ncc(C(=O)NO)cc5F)CC4)cc(F)cc23)cc1NS(C)(=O)=O` [Compound 30], the IC50 on PI3Kδ lay in the range of 10 to 100 nM; on HDAC10, 100 to 1000 nM; on PI3Kα, 100 to 1000 nM; at HDAC2, 100 to 1000 nM; against HDAC1 it was 100 to 1000 nM.
